Data on 21 molecules can be found in patent US12612407B2, “Imidazo[2,1-f][1,2,4]triazin-4-amine derivatives as TLR7 agonist” (BEIGENE, LTD., priority 2020, dated 2026).

As a reminder, the EC50 is the concentration that produces a half-maximal response. Lower therefore signals a more potent agent.

This experiment addresses T1, human TLR7 (Homo sapiens, UniProt Q9NYK1).
T1 construct: host or cells: HEK293 (HEK-Blue hTLR7)
T1 sequence (Q9NYK1 27-1049): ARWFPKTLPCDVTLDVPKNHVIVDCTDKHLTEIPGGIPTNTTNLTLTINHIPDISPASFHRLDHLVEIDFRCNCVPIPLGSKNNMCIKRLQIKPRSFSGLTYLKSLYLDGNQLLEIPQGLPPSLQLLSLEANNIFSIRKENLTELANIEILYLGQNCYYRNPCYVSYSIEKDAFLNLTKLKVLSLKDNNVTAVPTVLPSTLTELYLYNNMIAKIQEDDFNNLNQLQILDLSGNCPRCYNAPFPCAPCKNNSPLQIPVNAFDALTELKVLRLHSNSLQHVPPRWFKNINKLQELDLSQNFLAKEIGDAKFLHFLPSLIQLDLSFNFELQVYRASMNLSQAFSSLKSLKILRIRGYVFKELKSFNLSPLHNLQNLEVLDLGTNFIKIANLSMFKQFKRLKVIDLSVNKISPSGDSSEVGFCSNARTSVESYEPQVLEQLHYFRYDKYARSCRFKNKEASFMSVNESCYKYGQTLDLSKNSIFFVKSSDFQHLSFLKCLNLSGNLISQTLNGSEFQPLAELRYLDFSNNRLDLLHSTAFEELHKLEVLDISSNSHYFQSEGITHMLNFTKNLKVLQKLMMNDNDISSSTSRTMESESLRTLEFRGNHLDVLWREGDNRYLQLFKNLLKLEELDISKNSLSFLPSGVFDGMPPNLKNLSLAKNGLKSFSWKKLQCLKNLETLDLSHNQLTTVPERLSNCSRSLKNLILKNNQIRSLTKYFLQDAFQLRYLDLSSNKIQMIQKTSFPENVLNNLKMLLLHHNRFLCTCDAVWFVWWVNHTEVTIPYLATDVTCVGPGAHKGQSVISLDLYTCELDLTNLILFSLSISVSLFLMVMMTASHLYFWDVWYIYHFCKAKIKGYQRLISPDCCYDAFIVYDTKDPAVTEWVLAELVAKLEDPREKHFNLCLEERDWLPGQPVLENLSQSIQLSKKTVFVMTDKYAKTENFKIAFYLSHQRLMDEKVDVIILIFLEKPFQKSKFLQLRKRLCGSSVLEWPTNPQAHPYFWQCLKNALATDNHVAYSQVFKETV
The experiment in a line: HEK293-Blue hTLR7 Reporter Assay (QUANTI-BLUE, SEAP readout). The conditions noted are these: HEK-Blue-hTLR7 cells, 24 hrs treatment, Table 1, B1-B232. It is filed as cell-based. In outline:
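HEK-Blue-hTLR7 cells expressing NF-κB/AP-1-driven SEAP, 4×10^4 cells/well, treated 24 h at 37° C with increasing compound concentrations. Supernatant SEAP measured with Quanti-blue substrate (10-30 min, 37° C) at 620-655 nm; EC50 from sigmoidal dose-response fit.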
(In general: Reporter assays use an easily measured gene product as a stand-in for the process of interest.)
In the case of `CCC(CC)Nc1nc(N)c2ncc(Cc3cnc(N4CCN(C(=O)CNC)CC4)c(C)c3)n2n1` [Compound B175, 1-(4-(5-((4-amino-2-(pentan-3-ylamino)imidazo[2,1-f][1,2,4]triazin-7-yl)methyl)-3-methylpyridin-2-yl)piperazin-1-yl)-2-(methylamino)ethan-1-one], a half-maximal response (EC50) required 3.3 nM.

As to `CCCC(CCO)Oc1nc(N)c2ncc(Cc3cnc(N4CCN(C(=O)CN(C)C)CC4)c(C)c3)n2n1` (stereo not drawn) [Compound B176, 1-(4-(5-((4-amino-2-((1-hydroxyhexan-3-yl)oxy)imidazo[2,1-f][1,2,4]triazin-7-yl)methyl)-3-methylpyridin-2-yl)piperazin-1-yl)-2-(dimethylamino)ethan-1-one], it took 8.6 nM to reach a half-maximal effect (EC50).

With `CCCCOc1nc(N)c2ncc(Cc3cnc(N4CCN(C(=O)CN(C)C)[C@@H](C)C4)c(C)c3)n2n1` [Compound B179, (S)-1-(4-(5-((4-amino-2-butoxyimidazo[2,1-f][1,2,4]triazin-7-yl)methyl)-3-methylpyridin-2-yl)-2-methylpiperazin-1-yl)-2-(dimethylamino)ethan-1-one], a half-maximal response (EC50) required 38 nM.

As to `CCCCCc1nc(N)c2ncc(Cc3cnc(N4CCNCC4)c(C)c3)n2n1` [Compound B180, 7-((5-methyl-6-(piperazin-1-yl)pyridin-3-yl)methyl)-2-pentylimidazo[2,1-f][1,2,4]triazin-4-amine], a half-maximal effect (EC50) was put at 270 nM.

As to `CCCC(CC)Oc1nc(N)c2ncc(Cc3cnc(N4CCN(C(=O)CNC)CC4)c(C)c3)n2n1` (stereo not drawn) [Compound B181, 1-(4-(5-((4-amino-2-(hexan-3-yloxy)imidazo[2,1-f][1,2,4]triazin-7-yl)methyl)-3-methylpyridin-2-yl)piperazin-1-yl)-2-(methylamino)ethan-1-one], the half-maximal effective concentration (EC50) stood at 7.8 nM.

`CCCCOc1nc(N)c2ncc(Cc3cnc(N4CCNCC4)c(CC)c3)n2n1` [Compound B183, 2-butoxy-7-((5-ethyl-6-(piperazin-1-yl)pyridin-3-yl)methyl)imidazo[2,1-f][1,2,4]triazin-4-amine] came in with an EC50 of 93 nM.

`CCCC(CCC)Nc1nc(N)c2ncc(Cc3cnc(N4CCC(N(C)C)CC4)c(C)c3)n2n1` [Compound B184, 7-((6-(4-(dimethylamino)piperidin-1-yl)-5-methylpyridin-3-yl)methyl)-N2-(heptan-4-yl)imidazo[2,1-f][1,2,4]triazine-2,4-diamine] showed an EC50 of 3.6 nM.

For the molecule `CCCC(CCC)Oc1nc(N)c2ncc(Cc3cnc(N4CCC(N(C)C)CC4)c(C)c3)n2n1` [Compound B186, 7-((6-(4-(dimethylamino)piperidin-1-yl)-5-methylpyridin-3-yl)methyl)-2-(heptan-4-yloxy)imidazo[2,1-f][1,2,4]triazin-4-amine], the EC50 is 4.9 nM.

`CCC(CC)Oc1nc(N)c2ncc(Cc3cnc(N4CCC(N(C)C)CC4)c(C)c3)n2n1` [Compound B187, 7-((6-(4-(dimethylamino)piperidin-1-yl)-5-methylpyridin-3-yl)methyl)-2-(pentan-3-yloxy)imidazo[2,1-f][1,2,4]triazin-4-amine] yielded a 50% effective concentration (EC50) of 29 nM.

Consider `CCCC(CCC)Oc1nc(N)c2ncc(Cc3cnc(N4CCN(C(=O)CN(C)C)CC4)c(C)c3)n2n1` [Compound B188, 1-(4-(5-((4-amino-2-(heptan-4-yloxy)imidazo[2,1-f][1,2,4]triazin-7-yl)methyl)-3-methylpyridin-2-yl)piperazin-1-yl)-2-(dimethylamino)ethan-1-one], for which the concentration giving a half-maximal response (EC50) was 3.6 nM. This EC50 is about 8.1-fold lower than that of the molecule before.

`CCC(CC)Oc1nc(N)c2ncc(Cc3cnc(N4CCC(CN(C)C)CC4)c(C)c3)n2n1` [Compound B189, 7-((6-(4-((dimethylamino)methyl)piperidin-1-yl)-5-methylpyridin-3-yl)methyl)-2-(pentan-3-yloxy)imidazo[2,1-f][1,2,4]triazin-4-amine] gave an EC50 of 19 nM.

`CCCC(CCC)Nc1nc(N)c2ncc(Cc3cnc(N4CCNCC4)c(C)c3)n2n1` [Compound B191, N2-(heptan-4-yl)-7-((5-methyl-6-(piperazin-1-yl)pyridin-3-yl)methyl)imidazo[2,1-f][1,2,4]triazine-2,4-diamine] displayed a concentration giving a half-maximal response (EC50) of 7.9 nM. Compared with the last molecule, the EC50 is about 2.4-fold lower.

For `Cc1cc(Cc2cnc3c(N)nc(OCC4CCCCC4)nn23)cnc1N1CCNCC1` [Compound B192, 2-(cyclohexylmethoxy)-7-((5-methyl-6-(piperazin-1-yl)pyridin-3-yl)methyl)imidazo[2,1-f][1,2,4]triazin-4-amine], the midpoint of the response, the EC50, lay at 2680 nM.

Molecule `Cc1cc(Cc2cnc3c(N)nc(OCC4CCOC4)nn23)cnc1N1CCNCC1` (stereo not drawn) [Compound B193, 7-((5-methyl-6-(piperazin-1-yl)pyridin-3-yl)methyl)-2-((tetrahydrofuran-3-yl)methoxy)imidazo[2,1-f][1,2,4]triazin-4-amine] registered a half-maximal effective concentration (EC50) of 902 nM.

In turn, `Cc1cc(Cc2cnc3c(N)nc(OCC4CCOCC4)nn23)cnc1N1CCNCC1` [Compound B194, 7-((5-methyl-6-(piperazin-1-yl)pyridin-3-yl)methyl)-2-((tetrahydro-2H-pyran-4-yl)methoxy)imidazo[2,1-f][1,2,4]triazin-4-amine] returned an EC50 of 80 nM.

For `CCCC(CCC)Nc1nc(N)c2ncc(Cc3cnc(N4CCN(C(=O)CNC)CC4)c(C)c3)n2n1` [Compound B196, 1-(4-(5-((4-amino-2-(heptan-4-ylamino)imidazo[2,1-f] [1,2,4]triazin-7-yl)methyl)-3-methylpyridin-2-yl)piperazin-1-yl)-2-(methylamino)ethan-1-one], the EC50 stood at 5.7 nM. This EC50 is about 14-fold lower than that of the molecule before.

Molecule `CCCC(CCC)Oc1nc(N)c2ncc(Cc3cnc(N4CCN(C(=O)CNC)CC4)c(C)c3)n2n1` [Compound B197, 1-(4-(5-((4-amino-2-(heptan-4-yloxy)imidazo[2,1-f][1,2,4]triazin-7-yl)methyl)-3-methylpyridin-2-yl)piperazin-1-yl)-2-(methylamino)ethan-1-one] displayed an EC50 of 3.9 nM.

`CCCC(CCC)Oc1nc(N)c2ncc(Cc3cnc(N4CCC(CN(C)C)CC4)c(C)c3)n2n1` [Compound B198, 7-((6-(4-((dimethylamino)methyl)piperidin-1-yl)-5-methylpyridin-3-yl)methyl)-2-(heptan-4-yloxy)imidazo[2,1-f][1,2,4]triazin-4-amine] had an EC50 of 4.1 nM.

`CCC[C@H](C)Oc1nc(N)c2ncc(Cc3cnc(N4CCN(CCO)CC4)c(C)c3)n2n1` [Compound B199, (S)-2-(4-(5-((4-amino-2-(pentan-2-yloxy)imidazo[2,1-f][1,2,4]triazin-7-yl)methyl)-3-methylpyridin-2-yl)piperazin-1-yl)ethan-1-ol]: the 50% effective concentration (EC50) was found to be 8.1 nM.

In the case of `CCC(CC)Oc1nc(N)c2ncc(Cc3cnc(N4CCN(C(=O)CN(C)C)CC4)c(C)c3)n2n1` [Compound B200, 1-(4-(5-((4-amino-2-(pentan-3-yloxy)imidazo[2,1-f][1,2,4]triazin-7-yl)methyl)-3-methylpyridin-2-yl)piperazin-1-yl)-2-(dimethylamino)ethan-1-one], a half-maximal response (EC50) required 25 nM.

For the molecule `CCC(CC)Oc1nc(N)c2ncc(Cc3cnc(N4CCN(C(=O)CNC)CC4)c(C)c3)n2n1` [Compound B201, 1-(4-(5-((4-amino-2-(pentan-3-yloxy)imidazo[2,1-f][1,2,4]triazin-7-yl)methyl)-3-methylpyridin-2-yl)piperazin-1-yl)-2-(methylamino)ethan-1-one], the concentration for a half-maximal effect (EC50) came to 28 nM.
